Experiment [1] deals with T1, mouse serotonin 5-HT2C receptor (Mus musculus, UniProt P34968).
T1 construct: gene Htr2c; recombinant receptor stably expressed in HEK293 (HEK/5-HT2C cells)
T1 sequence (P34968 33-459): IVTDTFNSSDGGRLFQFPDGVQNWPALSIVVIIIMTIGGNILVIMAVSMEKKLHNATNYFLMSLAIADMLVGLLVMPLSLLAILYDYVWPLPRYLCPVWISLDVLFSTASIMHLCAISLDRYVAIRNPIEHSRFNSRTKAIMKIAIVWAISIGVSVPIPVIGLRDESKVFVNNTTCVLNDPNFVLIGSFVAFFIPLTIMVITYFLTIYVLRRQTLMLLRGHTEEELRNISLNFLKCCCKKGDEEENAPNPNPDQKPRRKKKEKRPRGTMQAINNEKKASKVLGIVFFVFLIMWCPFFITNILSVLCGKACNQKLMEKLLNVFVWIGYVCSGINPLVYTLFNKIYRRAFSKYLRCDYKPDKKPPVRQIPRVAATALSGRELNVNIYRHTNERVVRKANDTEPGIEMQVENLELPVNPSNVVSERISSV
In words: Fura-2 Ca2+ imaging, fraction of responsive HEK/5-HT2C cells, Hill fit. The experiment is classed as cell-based.

Experiment [2] addresses T1, mouse serotonin 5-HT2C receptor. The description is as above. The experiment is classed as cell-based. The source holds these as a separate data set.

As to `O=c1cc(N2CCNCC2)oc2c(-c3ccccc3)cccc12` [LY303511], a half-maximal response in experiment [1] (EC50) required 2500 nM.

In the case of `O=c1cc(N2CCOCC2)oc2c(-c3ccccc3)cccc12` [LY294002], the IC50 – broadly, the concentration that gives 50% inhibition – in experiment [2] turned out to be 1200 nM.

The values above are taken from article doi:10.1101/2025.11.06.687025v1 (biorxiv, 2025).
